The source of these data is patent US5919788A, “4-(1H-indol-1-yl)-1-piperidinyl derivatives” (Janssen Pharmaceutica, N.V., priority 1995, dated 1999).

Read-outs that look alike come from different tables or passages of the source.

Type in all cases: in vivo
One assay relates to dopamine. As to the kind of experiment: combined apomorphine, tryptamine, norepinephrine (ATN) test in rats: apomorphine (APO), central dopamine antagonism. To be noted: Rattus norvegicus, preventing the symptoms elicited with apomorphine.
The test system of the next assay is serotonin. As to the kind of experiment: combined apomorphine, tryptamine, norepinephrine (ATN) test in rats: tryptamine (TRY), central (convulsions) and peripheral (hyperaemia) serotonin antagonism. To be noted: Rattus norvegicus.
Another assay concerns norepinephrine. Nature of the assay: combined apomorphine, tryptamine, norepinephrine (ATN) test in rats: norepinephrine (NOR), peripheral α-adrenergic antagonism. To be noted: Rattus norvegicus, read-out: NOR, ED50.
[1] abbreviates: preventing central symptoms (convulsions), central serotonin antagonism, read-out: TRY convulsions, ED50.
[2] abbreviates: preventing peripheral symptoms (hyperaemia), peripheral serotonin antagonism, read-out: TRY hyperaemia, ED50.
Setting [3] is: preventing or delaying death upon administration of norepinephrine, rats, peripheral α-adrenergic antagonism.

By ED50 is commonly meant the midpoint of the dose-response relation. Take `Cc1nc2n(c(=O)c1CCN1CCC(n3ccc4ccccc43)CC1)CCS2` [Compound 1, 2,3-dihydro-6[2-[4-(1H-indol-1-yl)-1-piperidinyl]ethyl]-7-methyl-5H-thiazolo[3,2-a]-pyrimidin-5-one]: the ED50 is 0.63 mg/kg with dopamine, 0.63 mg/kg in the assay with serotonin (setting [1]), 0.04 mg/kg in the assay with serotonin (setting [2]) and above 10 mg/kg in the assay with norepinephrine.

As to `Cc1nc2n(c(=O)c1CCN1CCC(n3ccc4cc(F)ccc43)CC1)CCS2` [Compound 2], the ED50 in the assay with dopamine is 0.16 mg/kg; in the assay on serotonin (setting [1]) it was 0.63 mg/kg; in the assay with serotonin (setting [2]) it was 0.01 mg/kg; with norepinephrine it was 10 mg/kg.

As for `Cc1nc2sccn2c(=O)c1CCN1CCC(n2ccc3ccccc32)CC1` [Compound 3, 6-[2-[4-(1H-indol-1-yl)-1-piperidinyl]ethyl]-7-methyl-5H-thiazolo[3,2-a]pyrimidin-5-one], the median effective dose (ED50) with dopamine is 0.16 mg/kg; in the assay with serotonin (setting [1]), 0.16 mg/kg; in the assay on serotonin (setting [2]) it was 0.01 mg/kg; in the assay with norepinephrine, above 10 mg/kg.

Regarding `Cc1nc2sccn2c(=O)c1CCN1CCC(n2ccc3cc(F)ccc32)CC1` [Compound 4, 6-[2-[4-(5-fluoro-1H-indol-1-yl)-1-piperidinyl]ethyl]-7-methyl-5H-thiazolo[3,2-a]-pyrimidin-5-one], the ED50 came out at 0.04 mg/kg in the assay on dopamine, 0.04 mg/kg in the assay on serotonin (setting [1]), 0.01 mg/kg in the assay on serotonin (setting [2]) and 2.5 mg/kg with norepinephrine.

Regarding `Cc1nc2sccn2c(=O)c1CCN1CCC(N2CCc3ccccc32)CC1` [Compound 5], the values for the ED50 with dopamine, with serotonin (setting [1]) and in the assay on serotonin (setting [2]) were 0.08 mg/kg, 0.31 mg/kg and 0.02 mg/kg, respectively.

As to `Cc1nc2scc(C)n2c(=O)c1CCN1CCC(n2ccc3ccccc32)CC1` [Compound 6, 6-[2-[4-(1H-indol-1-yl)-1-piperidinyl]ethyl]-3,7-dimethyl-5H-thiazolo[3,2-a]pyrimidin-5-one], the ED50 in the assay with dopamine was 0.16 mg/kg; with serotonin (setting [1]), 0.16 mg/kg; with serotonin (setting [2]), 0.01 mg/kg; in the assay with norepinephrine, 10 mg/kg.

As to `Cc1nn2c(=O)c(CCN3CCC(n4ccc5cc(F)ccc54)CC3)c(C)nc2s1` [Compound 8, 6-[2-[4-(5-fluoro-1H-indol-1-yl)-1-piperidinyl]-ethyl]-2,7-dimethyl-5H-1,3,4-thiadiazolo[3,2-a]pyrimidin-5-one], the 50% effective dose (ED50) came out at 0.63 mg/kg in the assay on dopamine, 0.63 mg/kg in the assay on serotonin (setting [1]), 0.04 mg/kg with serotonin (setting [2]) and 10 mg/kg in the assay on norepinephrine.

Regarding `Cc1cc2nc(C)c(CCN3CCC(n4ccc5cc(F)ccc54)CC3)c(=O)n2o1` [Compound 10], the ED50 with dopamine turned out to be 0.63 mg/kg; in the assay with serotonin (setting [1]), 0.16 mg/kg; in the assay with serotonin (setting [2]) it was 0.0025 mg/kg; in the assay on norepinephrine it was 10 mg/kg.

With `Cc1nc2n(c(=O)c1CCN1CCC(n3ccc4cc(F)ccc43)CC1)CCCC2` [Compound 12, 3-[2-[4-(5-fluoro-1H-indol-1-yl)-1-piperidinyl]ethyl]-6,7,8,9-tetrahydro-2-methyl-4H-pyrido[1,2-a]pyrimidin-4-one], the ED50 in the assay on dopamine is 0.31 mg/kg; in the assay on serotonin (setting [1]) it was 0.31 mg/kg; in the assay on serotonin (setting [2]), 0.02 mg/kg; in the assay on norepinephrine, above 10 mg/kg.

As to `COC1CCCn2c1nc(C)c(CCN1CCC(n3ccc4cc(F)ccc43)CC1)c2=O` (centres unmarked) [Compound 15], the median effective dose (ED50) in the assay on dopamine is 0.16 mg/kg; in the assay with serotonin (setting [1]), 0.63 mg/kg; with serotonin (setting [2]), 0.01 mg/kg; in the assay on norepinephrine, 10 mg/kg.

For the compound `Cc1nc2n(c(=O)c1CCN1CCC(n3ccc4ccccc43)CC1)CCCS2` [Compound 16], the median effective dose (ED50) in the assay with dopamine is 0.16 mg/kg; in the assay on serotonin (setting [1]), 0.63 mg/kg; in the assay on serotonin (setting [2]), 0.02 mg/kg; in the assay with norepinephrine it was 10 mg/kg.

Turning to `Cc1nc2n(c(=O)c1CCN1CCC(n3ccc4cc(F)ccc43)CC1)CCCS2` [Compound 17], the median effective dose (ED50) in the assay with dopamine was determined as 0.08 mg/kg; with serotonin (setting [1]) it was 0.16 mg/kg; in the assay on serotonin (setting [2]), 0.02 mg/kg; in the assay with norepinephrine (setting [3]), 5 mg/kg.

With `Cc1nc2ccccn2c(=O)c1CCN1CCC(n2ccc3cc(F)ccc32)CC1` [Compound 18], the 50% effective dose (ED50) in the assay on dopamine turned out to be 0.08 mg/kg; in the assay with serotonin (setting [1]), 0.08 mg/kg; in the assay on serotonin (setting [2]), 0.01 mg/kg; in the assay with norepinephrine (setting [3]), 5 mg/kg.

In the case of `Cc1nc2c(C)cccn2c(=O)c1CCN1CCC(n2ccc3ccccc32)CC1` [Compound 19], the ED50 in the assay with dopamine is 0.63 mg/kg; in the assay on serotonin (setting [1]) it was 2.5 mg/kg; with serotonin (setting [2]), 0.63 mg/kg; with norepinephrine it was above 10 mg/kg.

For the compound `Cc1nc2c(C)cccn2c(=O)c1CCN1CCC(n2ccc3cc(F)ccc32)CC1` [Compound 20], the ED50 in the assay with dopamine was 0.63 mg/kg; in the assay with serotonin (setting [1]), 0.63 mg/kg; with serotonin (setting [2]) it was 0.16 mg/kg; in the assay with norepinephrine, above 10 mg/kg.

Turning to `CNc1nc(C)c(CCN2CCC(n3ccc4cc(F)ccc43)CC2)c(=O)n1C` [Compound 24, 5-[2-[4-(5-fluoro-1H-indol-1-yl)-1-piperidinyl]ethyl]-3,6-dimethyl-2-(methylamino)-4(3H)-pyrimidinone], the ED50 in the assay on dopamine came out at 0.63 mg/kg; in the assay with serotonin (setting [1]), 0.16 mg/kg; with serotonin (setting [2]) it was 0.01 mg/kg; in the assay on norepinephrine, 10 mg/kg.

In the case of `CCSc1nc(C)c(CCN2CCC(n3ccc4ccccc43)CC2)c(=O)n1C` [Compound 25], the ED50 in the assay on dopamine is 0.63 mg/kg; in the assay with serotonin (setting [1]), 2.5 mg/kg; in the assay with serotonin (setting [2]), 0.16 mg/kg; in the assay with norepinephrine it was above 10 mg/kg.

`O=C(O)/C=C/C(=O)O.O=c1[nH]c2ccccc2n1CCCN1CCC(n2ccc3cc(F)ccc32)CC1` [Compound 28, 1-[3-[4-(5-fluoro-1H-indol-1-yl)-1-piperidinyl]propyl]-1,3-dihydro-2H-benzimidazol-2-one (E)-2-butenedioate (1:1)]: the figures for the median effective dose (ED50) in the assay on serotonin (setting [1]), in the assay with serotonin (setting [2]) and in the assay on norepinephrine were 0.16 mg/kg, 0.01 mg/kg and above 10 mg/kg, respectively.

On to `Cc1nc2n(c(=O)c1CCN1CCC(n3ccc4cc(F)ccc43)CC1)C(C)CCC2` (centres unmarked) [Compound 29], for which the ED50 in the assay on dopamine worked out at 0.08 mg/kg; in the assay with serotonin (setting [1]), 0.31 mg/kg; in the assay on serotonin (setting [2]), 0.005 mg/kg; with norepinephrine (setting [3]), 5 mg/kg.

As for `Cc1nc2n(c(=O)c1CCN1CCC(N3CCc4ccccc43)CC1)CCCC2` [Compound 31], the figures for the median effective dose (ED50) in the assay with dopamine, with serotonin (setting [1]) and in the assay with serotonin (setting [2]) were 1.25 mg/kg, 1.25 mg/kg and 0.31 mg/kg, respectively.

Turning to `Cc1nc2n(c(=O)c1CCN1CCC(N3c4ccccc4CC3C)CC1)CCCC2` (centres unmarked) [Compound 34], the median effective dose (ED50) in the assay with dopamine was 5 mg/kg; in the assay with serotonin (setting [1]), above 10 mg/kg; in the assay with serotonin (setting [2]) it was at most 0.63 mg/kg.
